Test results taken from publication PMC10945480 (Journal of Medicinal Chemistry, 2024).

Key:
[1] = molecular target: purified human recombinant PDI (rPDI) (Homo sapiens, UniProt P07237); assay: Recombinant PDI reductase activity (Di-E-GSSG assay); settings: read-out: rPDI IC50; human recombinant PDI, Di-E-GSSG, 5 μM DTT
Experimental: (§3) In this assay, a nonfluorescent substrate, dieosin glutathione disulfide (Di-E-GSSG), was reduced into a fluorescent product eosin-glutathione (E-GSH) by platelet surface PDI in the presence of 5 μM dithiothreitol (DTT).

breast cancer MDA-MB-231 = assay: Cell viability, resazurin assay, MDA-MB-231; settings: Homo sapiens, MDA-MB-231, 24 h, read-out: MDA-MB-231 IC50
Experimental: (§4) Cells were maintained in a humidified incubator at 37 °C in 5% CO2, and cell viability was determined with the resazurin assay (Cayman Chemical, USA) after the incubation with compounds for indicated concentrations and times or DMSO as control.[72]

lung cancer A549 = assay: Cell viability, resazurin assay, A549; settings: Homo sapiens, A549, 24 h, read-out: A549 IC50
Experimental: as §4

platelet surface PDI = platelet surface PDI (Homo sapiens, UniProt P07237); assay: Cell surface PDI reductase activity on intact human platelets (Di-E-GSSG assay); settings: read-out: Surface PDI IC50; intact human platelets, Di-E-GSSG, 5 μM DTT
platelet surface PDI, sequence (P07237 18-508): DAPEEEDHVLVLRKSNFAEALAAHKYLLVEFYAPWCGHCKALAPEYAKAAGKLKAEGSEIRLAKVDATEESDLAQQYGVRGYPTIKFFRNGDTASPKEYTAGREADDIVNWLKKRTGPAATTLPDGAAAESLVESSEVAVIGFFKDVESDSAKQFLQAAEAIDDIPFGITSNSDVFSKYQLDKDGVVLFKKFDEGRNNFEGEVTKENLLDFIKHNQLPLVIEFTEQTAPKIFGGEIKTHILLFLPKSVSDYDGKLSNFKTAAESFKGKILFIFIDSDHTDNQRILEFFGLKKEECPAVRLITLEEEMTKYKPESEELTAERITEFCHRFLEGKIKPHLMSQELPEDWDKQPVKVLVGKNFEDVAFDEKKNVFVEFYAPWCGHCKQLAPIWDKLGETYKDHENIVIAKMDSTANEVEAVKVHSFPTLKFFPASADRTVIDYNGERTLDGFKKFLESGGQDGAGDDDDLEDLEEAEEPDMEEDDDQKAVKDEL
Experimental: as §3

glioma U87 = assay: Cell viability, resazurin assay, U87; settings: Homo sapiens, 24 h, read-out: U87 IC50
Experimental: as §4

[2] = tested on: human vascular endothelial EA.hy926 cells; assay: Cell viability, resazurin assay, EA.hy926; settings: EA.hy 926, 24 h, read-out: EAhy926 IC50
Experimental: as §4

washed human platelets [3] = assay: U46619-induced platelet aggregation; format: cell-based; settings: Platelet; washed human platelets, U46619 (1 μM)
Experimental: (§1) The antiplatelet effects of the JUG derivatives were evaluated by measuring human platelet aggregation, which can be regulated by cell surface PDI. Platelet aggregation was induced with platelet activators U46619 (a mimetic of thromboxane A2) and collagen (binding to GPVI).
(§2) Washed human platelets were prepared from acid citrate dextrose-anticoagulated blood of healthy human volunteers as described previously.[73] The study was approved by the Institutional Review Board of Kaohsiung Medical University, and informed consent was obtained from every volunteer. Platelet aggregation was measured by using a turbidimetric aggregometer (Chrono-Log Co., USA) under stirring conditions (1200 rpm) at 37 °C. The extent of platelet aggregation was measured as the maximal increase of light transmission after the addition of the stimulators U46619 and collagen.[73] In the TCIPA assay, platelet aggregation was induced by A549 (1 × 10^4 cells/mL), MDA-MB-231 (1 × 10^2 cells/mL), or RPMI8226 (1 × 10^5 cells/mL) cancer cells in the presence of 0.375% plasma.[74]

washed human platelets [4] = assay: Collagen-induced platelet aggregation; format: cell-based; settings: Platelet; washed human platelets, collagen (5 μg/mL)
Experimental: as §1, §2

[5] = tested on: multiple myeloma RPMI8226; assay: Cell viability, resazurin assay, RPMI8226; settings: for S.I. (EAhy926/RPMI8226), selectivity index: 24 h IC50 ratio; for IC50: Homo sapiens, RPMI-8226, 24 h, read-out: RPMI8226 IC50
Experimental: as §4

[6] = Parallel artificial membrane permeability assay (PAMPA); settings: 50 μM, 25 ℃, 3 h, verapamil = 100%, ranitidine = 0%
Experimental: 1. Parallel artificial membrane permeability assay (PAMPA). […]
evolution instruments from pION Inc. In the PAMPA assay, a set of sandwich plates consists of a 96-well microtiter donor plate at the bottom and a 96-well filter acceptor plate on the top from […]
The stock solutions of samples were prepared at 10 mM concentrations in DMSO and stored at 0 ℃ before use. Before being added to a 96-well filter plate, the stock solution was diluted first with buffer to achieve a final sample concentration of 50 μM and to reduce the DMSO concentration below 1% (v/v). Each well of the 96-well donor plate was filled with a 200 μL diluted sample solution (50 μM), and the 96-well filter acceptor plate was then wetted with a 5 μL 2% w/v dioleyoylphosphatidylcholine (DOPC) in n-dodecane and subsequently placed on the donor wells.
Immediately, the acceptor wells were filled with 200 μL of buffer solution and the PAMPA plate sandwich was sealed and incubated at 25 ℃ for 3 h. After reaching the permeation time, the PAMPA plate sandwich was separated and transferred to 96-well UV plates respectively. The amounts of drugs in both the donor and acceptor compartments were measured by comparing the experimental spectra with the UV spectrum (220∼400 nm) obtained from reference standards.

[7] = UPLC-MS analysis of compound metabolites in water with or without GSH; format: physicochemical; settings: 37 °C, 30 min
Experimental: GSH is the major cellular nonprotein thiol, which exists within cells at millimolar concentrations (1–8 mM) while is present extracellularly at only a few micromolar.[53] The high concentrations of intracellular GSH thus may compete with the binding of PDI to covalent PDI inhibitors.[54] […] In this assay, the noncovalent PDI inhibitor isoquercetin was used as a negative control.
Compounds (400 μM) were incubated in water (250 μL) with or without GSH (4 mM) at 37 °C for 30 min. The compound mixture was diluted with methanol (250 μL) and used for UPLC-MS analysis Metabolite analysis was performed on an ACQUITY UPLC I-Class/SQ Detector 2 (Waters, Milford, USA). The reverse phase BEH C18 column (100 mm × 2.1 mm, 1.7 μm, Waters) and VanGuard BEH C18 guard column (5 mm × 2.1 mm, 1.7 μm, Waters) were used. All data were acquired by Empower 3. The mobile phase for LC separation was Millipore water (A) and acetonitrile (B), and the program was as follows: 0.00 min 90% A → 0.50 min 90% A → 6.50 min 5% A → 8.50 min 5% A → 8.60 min 90% A → 9.00 min 90% A; at a rate of 0.4 mL/min for 9.00 min with 5 μL per injection. The temperature of the column oven was maintained at 40 °C. Mass spectrometer parameters were set as follows: cone voltage, 40.0 V, for positive/negative ion mode; desolvation temperature, 200 °C; cone gas flow(N2), 1 L/h; and desolvation gas flow (N2), 650 L/h.

[8] = tested on: washed human platelets coincubated with A549, MDA-MB-231, or RPMI8226 cancer cells; assay: Tumor cell-induced platelet aggregation (TCIPA); format: cell-based; settings: anti-TF antibody 20 μg/mL, hirudin 0.01 μM, aspirin 100 μM, ticagrelor 1 μM
[9] = tested on: washed human platelets coincubated with A549 cancer cells; assay: Tumor cell-induced platelet secretion (PDGF, ATP); format: cell-based
Experimental: (a) Washed human platelets were coincubated with A549 cancer cells under the same conditions as described in Figure 4. Secretion of PDGF and ATP were determined with the enzyme-linked immunosorbent assay (ELISA) and bioluminescent assay, respectively. (b) A549 cancer cells were coincubated with washed human platelets at 37 °C and 5% CO2 in a cell culture incubator for 48 h. After washing with PBS, the numbers of viable cancer cells were determined by trypan blue exclusion. Data are mean ± SEM of at least three independent experiments.
Washed human platelets were coincubated with cancer cells under the same conditions as described in the TCIPA assay. After a 25 min incubation in the aggregometer, the samples were centrifuged at 13,000g for 1 min. The concentrations of PDGF-BB and ATP in the supernatants were determined using an ELISA kit (Abcam, Cambridge, UK) and an ATP bioluminescent assay kit (Sigma, MO, USA), respectively.[52]

purified human recombinant PDI (rPDI), sequence (P07237 18-508): as above

| Compound | IC50 [1] | IC50 (breast cancer MDA-MB-231) | IC50 (lung cancer A549) | IC50 (platelet surface PDI) | IC50 (glioma U87) | IC50 [2] | IC50 (washed human platelets [3]) | IC50 (washed human platelets [4]) | S.I. (EAhy926/RPMI8226), selectivity index [5] | IC50 [5] | Permeability (%) [6] | stability in aqueous conditions (UPLC-MS) ([7]; 400 μM in water) | GSH adduct formation after GSH treatment (UPLC-MS) ([7]; 400 μM, GSH 4 mM) | effect of comparators on TCIPA [8] | tumor cell-induced increase in extracellular PDGF and ATP (platelet secretion) [9] |
| --- | --- | --- | --- | --- | --- | --- | --- | --- | --- | --- | --- | --- | --- | --- | --- |
| O=C1C=C(Sc2ccc(F)cc2)C(=O)c2c(O)cccc21 [Compound 15, 2-((4-Fluorophenyl)thio)-8-hydroxynaphthalene-1,4-dione] | 1.16 ± 0.47 µM | 10.6 ± 0.85 µM | 38.3 ± 2.65 µM | 1.67 ± 0.15 µM | 17.3 ± 0.68 µM | > 20 µM | 1.88 ± 0.18 µM | 0.83 ± 0.11 µM | >7.7 | 2.59 ± 0.25 µM | 85.4% |  |  |  |  |
| O=C1C=C(Br)C(=O)c2c(O)cccc21 [Compound 17, 2-Bromo-8-hydroxynaphthalene-1,4-dione] | 1.99 ± 0.63 µM | 14.1 ± 0.79 µM | 15.3 ± 0.74 µM | 1.13 ± 0.25 µM | > 20 µM | > 20 µM | 1.76 ± 0.08 µM | 0.52 ± 0.21 µM | >4.8 | 4.21 ± 0.43 µM | 16.9% |  |  |  |  |
| CC(C)(C)c1ccc(CSC2=CC(=O)c3cccc(O)c3C2=O)cc1 [Compound 20, 2-((4-(tert-Butyl)benzyl)thio)-8-hydroxynaphthalene-1,4-dione] | 2.01 ± 0.55 µM | > 20 µM | > 50 µM | 1.2 ± 0.31 µM | > 20 µM | > 20 µM | 6.32 ± 0.3 µM | 2.92 ± 0.77 µM | >4.6 | 4.33 ± 0.34 µM | 17.1% |  |  |  |  |
| COc1ccc(OC2=CC(=O)c3cccc(O)c3C2=O)cc1 [Compound 21, 2-(4-Methoxyphenoxy)-8-hydroxynaphthalene-1,4-dione] | 1.37 ± 0.26 µM | 6.62 ± 1.79 µM | 12 ± 1.47 µM | 1.12 ± 0.31 µM | 12.6 ± 0.68 µM | 6.03 ± 0.07 µM | 1.35 ± 0.13 µM | 0.35 ± 0.03 µM | 10.6 | 0.57 ± 0.02 µM | 61.4% |  |  |  |  |
| O=C1C=C(c2ccc(O)cc2O)C(=O)c2c(O)cccc21 [Compound 29, 2-(2,4-Dihydroxyphenyl)-8-hydroxynaphthalene-1,4-dione] | 0.77 ± 0.2 µM | 13.1 ± 1.59 µM | 7.59 ± 0.16 µM | 0.53 ± 0.11 µM | 5.13 ± 0.29 µM | 5.49 ± 0.09 µM | 4.61 ± 1.1 µM | 7.04 ± 1.71 µM | 1.4 | 3.88 ± 0.23 µM | 42.95% |  |  |  |  |
| COc1ccc(SC2=C(c3ccc(O)cc3O)C(=O)c3c(O)cccc3C2=O)cc1 [Compound 30, 2-(2,4-Dihydroxyphenyl)-3-((4-methoxyphenyl)thio)-8-hydroxynaphthalene-1,4-dione] | 2.27 ± 0.8 µM | 16 ± 1.35 µM | 17.55 ± 0.06 µM | 0.47 ± 0.05 µM | 11.2 ± 1.01 µM | 11 ± 0.33 µM | 1.37 ± 0.03 µM | 5.19 ± 1.22 µM | 1.9 | 5.89 ± 0.32 µM | 12.64% | remained intact in aqueous conditions | only a small amount |  |  |
| CCCSc1nc(N[C@@H]2C[C@H]2c2ccc(F)c(F)c2)c2nnn([C@@H]3C[C@H](OCCO)[C@@H](O)[C@H]3O)c2n1 [ticagrelor, reference compound] |  |  |  |  |  |  |  |  |  |  |  |  |  | no or little effect | not |
| hirudin |  |  |  |  |  |  |  |  |  |  |  |  |  | able to prevent the TCIPA |  |
